In the supplement of paper PMC8149375:

Columns and labels:
Settings in all cases: treatment: drug + dasatinib (fixed dose, not stated); 5 days
[1] = test system: 769-P; assay: GI50 of drug in presence of dasatinib; higher = less potent
Protocol: (§1)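 Primary HTS combination arm: 8 RCC cell lines treated with 8 doses (up to 10 uM) of each library drug plus a fixed dose of dasatinib (dose not stated) for 5 days; viability read by CellTiter-Glo and normalised to DMSO. GI50 was fitted with XLfit, AUC is the area under the dose-response curve, and minimum viability is the lowest fraction of DMSO viability across doses.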

[2] = test system: 786-O; assay: as above
Protocol: as §1

[3] = test system: A498; assay: as above
Protocol: as §1

[4] = test system: ACHN; assay: as above
Protocol: as §1

[5] = test system: CAKI-1; assay: as above
Protocol: as §1

[6] = test system: SN12C; assay: as above
Protocol: as §1

[7] = test system: TK-10; assay: as above
Protocol: as §1

[8] = test system: UO-31; assay: as above
Protocol: as §1

[9] = test system: 769-P; assay: minimum viability across doses, drug + dasatinib, relative to DMSO (fraction); higher = less growth inhibition
Protocol: as §1

[10] = test system: 786-O; assay: as above
Protocol: as §1

[11] = test system: A498; assay: as above
Protocol: as §1

[12] = test system: ACHN; assay: as above
Protocol: as §1

[13] = test system: CAKI-1; assay: as above
Protocol: as §1

[14] = test system: SN12C; assay: as above
Protocol: as §1

[15] = test system: TK-10; assay: as above
Protocol: as §1

[16] = test system: UO-31; assay: as above
Protocol: as §1

[17] = test system: 769-P; assay: AUC of dose-response viability curve, drug + dasatinib, normalised to DMSO (arbitrary (AUC of normalised viability)); higher = less growth inhibition
Protocol: as §1

[18] = test system: 786-O; assay: as above
Protocol: as §1

[19] = test system: A498; assay: as above
Protocol: as §1

[20] = test system: ACHN; assay: as above
Protocol: as §1

[21] = test system: CAKI-1; assay: as above
Protocol: as §1

[22] = test system: SN12C; assay: as above
Protocol: as §1

[23] = test system: TK-10; assay: as above
Protocol: as §1

[24] = test system: UO-31; assay: as above
Protocol: as §1

| SMILES | GI50 of drug [2] [nM] | GI50 of drug [4] [nM] | GI50 of drug [1] [nM] | GI50 of drug [3] [nM] | GI50 of drug [5] [nM] | GI50 of drug [6] [nM] | GI50 of drug [7] [nM] | GI50 of drug [8] [nM] | minimum viability across doses [9] | minimum viability across doses [10] | minimum viability across doses [11] | minimum viability across doses [12] | minimum viability across doses [13] | minimum viability across doses [14] | minimum viability across doses [15] | minimum viability across doses [16] | AUC of dose-response viability curve [17] | AUC of dose-response viability curve [18] | AUC of dose-response viability curve [19] | AUC of dose-response viability curve [20] | AUC of dose-response viability curve [21] | AUC of dose-response viability curve [22] | AUC of dose-response viability curve [23] | AUC of dose-response viability curve [24] |
| --- | --- | --- | --- | --- | --- | --- | --- | --- | --- | --- | --- | --- | --- | --- | --- | --- | --- | --- | --- | --- | --- | --- | --- | --- |
| CCc1cccc(CC)c1NC(=O)N1Cc2[nH]nc(NC(=O)c3ccc(N4CCN(C)CC4)cc3)c2C1 + Cc1nc(Nc2ncc(C(=O)Nc3c(C)cccc3Cl)s2)cc(N2CCN(CCO)CC2)n1 [dasatinib] | 469 | 566 | > 10000 | 2720 | 818 | 641 | 4610 | 7530 | 0.565 | 0.0687 | 0.406 | 0.129 | 0.0817 | 0.117 | 0.319 | 0.31 | 2.4 | 1.79 | 2.74 | 1.88 | 1.89 | 1.9 | 2.43 | 3.44 |
| CC(=O)NCC(=O)N1[C@H]2CC[C@H]1c1cc(Nc3ncc(C(F)(F)F)c(NC4CCC4)n3)ccc12 + Cc1nc(Nc2ncc(C(=O)Nc3c(C)cccc3Cl)s2)cc(N2CCN(CCO)CC2)n1 [dasatinib] | 18.1 | 24.1 | 118 | 625 | 30.6 | 128 | 429 | 711 | 0.028 | 0.0101 | 0.0199 | 0.0109 | 0.0773 | 0.0154 | 0.116 | 0.0156 | 1.61 | 0.86 | 2.34 | 1.17 | 1.11 | 1.47 | 1.83 | 2.3 |
| Oc1ccc(-c2nc(-c3ccc(F)cc3)c(-c3ccncc3)[nH]2)cc1 + Cc1nc(Nc2ncc(C(=O)Nc3c(C)cccc3Cl)s2)cc(N2CCN(CCO)CC2)n1 [dasatinib] | > 10000 | 449 | > 10000 | > 10000 | > 10000 | > 10000 | > 10000 | > 10000 | 0.56 | 0.609 | 0.909 | 0.279 | 0.555 | 0.652 | 0.634 | 0.768 | 2.27 | 2.57 | 3.53 | 1.74 | 2.52 | 2.45 | 2.53 | 3.66 |
| Cn1cc(C2=C(c3ccc(Cl)cc3Cl)C(=O)NC2=O)c2ccccc21 + Cc1nc(Nc2ncc(C(=O)Nc3c(C)cccc3Cl)s2)cc(N2CCN(CCO)CC2)n1 [dasatinib] | > 10000 | > 10000 | 5290 | > 10000 | > 10000 | > 10000 | > 10000 | 6210 | 0.288 | 0.587 | 0.929 | 0.548 | 0.562 | 0.642 | 0.532 | 0.191 | 2.36 | 2.55 | 3.8 | 2.2 | 0.956 | 2.53 | 2.74 | 3.15 |

Now from value to compound, other results behind:

| GI50 of drug [2] [nM] | GI50 of drug [4] [nM] | SMILES | GI50 of drug [1] [nM] | GI50 of drug [3] [nM] | GI50 of drug [5] [nM] | GI50 of drug [6] [nM] | GI50 of drug [7] [nM] | GI50 of drug [8] [nM] | minimum viability across doses [9] | minimum viability across doses [10] | minimum viability across doses [11] | minimum viability across doses [12] | minimum viability across doses [13] | minimum viability across doses [14] | minimum viability across doses [15] | minimum viability across doses [16] | AUC of dose-response viability curve [17] | AUC of dose-response viability curve [18] | AUC of dose-response viability curve [19] | AUC of dose-response viability curve [20] | AUC of dose-response viability curve [21] | AUC of dose-response viability curve [22] | AUC of dose-response viability curve [23] | AUC of dose-response viability curve [24] |
| --- | --- | --- | --- | --- | --- | --- | --- | --- | --- | --- | --- | --- | --- | --- | --- | --- | --- | --- | --- | --- | --- | --- | --- | --- |
| 419 | 68.7 | COc1cc(Nc2ncc(F)c(Nc3ccc4c(n3)N(COP(=O)([O-])[O-])C(=O)C(C)(C)O4)n2)cc(OC)c1OC.[Na+].[Na+] + Cc1nc(Nc2ncc(C(=O)Nc3c(C)cccc3Cl)s2)cc(N2CCN(CCO)CC2)n1 [dasatinib] | 1630 | > 10000 | 161 | 793 | 2070 | 1580 | 0.0654 | 0.245 | 0.671 | 0.0433 | 0.00358 | 0.202 | 0.304 | 0.0117 | 2.15 | 1.78 | 3.45 | 1.48 | 1.52 | 2.03 | 2.17 | 2.8 |
| < 3 | 90.6 | CNC(=O)c1ccc(C)c(-n2c(C)cc(OCc3ccc(F)cc3F)c(Br)c2=O)c1 + Cc1nc(Nc2ncc(C(=O)Nc3c(C)cccc3Cl)s2)cc(N2CCN(CCO)CC2)n1 [dasatinib] | > 10000 | > 10000 | > 10000 | > 10000 | > 10000 | > 10000 | 0.558 | 0.457 | 0.937 | 0.346 | 0.561 | 0.64 | 0.541 | 1.15 | 2.22 | 1.89 | 3.58 | 1.68 | 2.3 | 2.42 | 2.23 | 4.38 |
| 35.5 | 22 | CNC(=O)c1nn(C)c2c1C(C)(C)Cc1cnc(Nc3ccc(N4CCN(C)CC4)cc3)nc1-2 + Cc1nc(Nc2ncc(C(=O)Nc3c(C)cccc3Cl)s2)cc(N2CCN(CCO)CC2)n1 [dasatinib] | 245 | 3470 | 38.8 | 261 | 137 | 279 | 0.0274 | 0.00492 | 0.0243 | 0.0123 | 0.0344 | 0.0108 | 0.189 | 0.0113 | 1.77 | 1.35 | 3.23 | 1.03 | 1.11 | 1.71 | 1.63 | 2.02 |
